ChEMBL document CHEMBL1139425, “Characterization of the binding properties of SIRT2 inhibitors with a N-(3-phenylpropenoyl)-glycine tryptamide backbone” (Bioorg Med Chem, 2008)

Experiments:
[1] = target: T1, NAD-dependent protein deacetylase sirtuin-2 (Homo sapiens) (UniProt Q8IXJ6); experiment: Inhibition of recombinant GST-tagged SIRT2 at 200 uM by Fluor de Lys fluorescence assay
T1 sequence (whole entry): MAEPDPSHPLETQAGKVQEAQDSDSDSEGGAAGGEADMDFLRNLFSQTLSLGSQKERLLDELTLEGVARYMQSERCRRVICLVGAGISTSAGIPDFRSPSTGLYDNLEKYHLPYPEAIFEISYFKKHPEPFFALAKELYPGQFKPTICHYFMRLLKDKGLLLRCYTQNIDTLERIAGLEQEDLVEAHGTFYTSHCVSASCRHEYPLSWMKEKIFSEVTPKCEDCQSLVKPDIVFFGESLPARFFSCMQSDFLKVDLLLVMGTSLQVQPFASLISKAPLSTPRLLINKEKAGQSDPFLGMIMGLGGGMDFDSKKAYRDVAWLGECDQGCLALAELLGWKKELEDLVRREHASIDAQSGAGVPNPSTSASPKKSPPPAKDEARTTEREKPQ

[2] = target: T2, NAD-dependent protein deacetylase sirtuin-2 (Homo sapiens, UniProt Q8IXJ6); experiment: Inhibition of recombinant GST-tagged SIRT2 by Fluor de Lys fluorescence assay
T2 sequence (Q8IXJ6 whole entry): T1 sequence (whole entry)

SMILES | inhibition [1] [%] | IC50 [2] [µM]
O=C(NCCc1c[nH]c2ccc(OCc3ccccc3)cc12)[C@@H]1CCCN1C(=O)CCc1ccccc1 | 29.8 | –
O=C(NCCc1c[nH]c2ccccc12)[C@@H]1CCCN1C(=O)/C=C/c1ccccc1 | 36.6 | –
CC(C)(NC(=O)CCc1ccccc1)C(=O)NCCc1c[nH]c2ccccc12 | 12.5 | –
C[C@H](NC(=O)CCc1ccccc1)C(=O)NCCc1c[nH]c2ccc(OCc3ccccc3)cc12 | 50.2 | 86
O=C(CCc1ccccc1)NCCc1c[nH]c2ccccc12 | 44.1 | –
COc1ccc2[nH]cc(CCNC(=O)CNC(=O)/C=C/c3ccccc3)c2c1 | 24.2 | –
O=C(/C=C/c1ccccc1)NCC(=O)NCCc1c[nH]c2ccc(OCc3ccccc3)cc12 | 32.9 | –
C[C@H](NC(=O)/C=C/c1ccccc1)C(=O)NCCc1ccccc1 | 29.6 | –
C[C@H](NC(=O)/C=C/c1ccccc1)C(=O)NCCc1c[nH]c2ccc(OCc3ccccc3)cc12 | 43.7 | –
CC(C)(NC(=O)CCc1ccc(O)cc1)C(=O)NCCc1c[nH]c2ccccc12 | 19.5 | –
O=C(/C=C/c1ccc(O)cc1)NCCc1c[nH]c2ccccc12 | 44.3 | –
COc1cccc(/C=C/C(=O)NC(C)(C)C(=O)NCCc2c[nH]c3ccccc23)c1 | 45.9 | –
C[C@H](NC(=O)/C=C/c1ccccc1)C(=O)NCCc1c[nH]c2ccccc12 | 59.6 | 109
CC(C)(NC(=O)/C=C/c1cccc([N+](=O)[O-])c1)C(=O)NCCc1c[nH]c2ccccc12 | 42.1 | –
CC(C)(NC(=O)/C=C/c1cccc(O)c1)C(=O)NCCc1c[nH]c2ccccc12 | 46.7 | –
O=C(/C=C/c1ccccc1)NCCc1c[nH]c2ccccc12 | 58 | 173
CC(C)(NC(=O)/C=C/c1ccc(O)cc1)C(=O)NCCc1cccnc1 | 2 | –
O=C(/C=C/c1ccccc1)NCC(=O)NCCc1c[nH]c2ccccc12 | 22.7 | –
COc1ccccc1/C=C/C(=O)NC(C)(C)C(=O)NCCc1c[nH]c2ccccc12 | 35 | –
CC(C)(NC(=O)/C=C/c1ccccc1)C(=O)NCCc1c[nH]c2ccccc12 | 49.5 | 100
CC(C)(NC(=O)/C=C/c1ccc(F)cc1)C(=O)NCCc1c[nH]c2ccccc12 | 61.3 | 105
